Data on 52 molecules can be found in ChEMBL document CHEMBL1146846, “Discovery of protein-protein binding disruptors using multi-component condensations small molecules” (Bioorg Med Chem Lett, 2006).

The target of one data set is Neuropilin-1 (Homo sapiens, UniProt O14786). The data set is described as follows: Inhibition of VEGF165-NRP1 interaction by ELISA.
For data set [1], the system named is PC-3. Description: Inhibition of PC3 cell migration. The class given is functional, cell-based. The settings on record: Homo sapiens.
In data set [2] the test system is PC-3. The data set is described as follows: Toxicity against PC3 cell line by LDH-release assay. The class given is cell-based. To be noted: human.

Active and inactive are the calls of the source. The calls are words filed in the database; no cut-off is given here.

Sequence of Neuropilin-1 (O14786 whole entry): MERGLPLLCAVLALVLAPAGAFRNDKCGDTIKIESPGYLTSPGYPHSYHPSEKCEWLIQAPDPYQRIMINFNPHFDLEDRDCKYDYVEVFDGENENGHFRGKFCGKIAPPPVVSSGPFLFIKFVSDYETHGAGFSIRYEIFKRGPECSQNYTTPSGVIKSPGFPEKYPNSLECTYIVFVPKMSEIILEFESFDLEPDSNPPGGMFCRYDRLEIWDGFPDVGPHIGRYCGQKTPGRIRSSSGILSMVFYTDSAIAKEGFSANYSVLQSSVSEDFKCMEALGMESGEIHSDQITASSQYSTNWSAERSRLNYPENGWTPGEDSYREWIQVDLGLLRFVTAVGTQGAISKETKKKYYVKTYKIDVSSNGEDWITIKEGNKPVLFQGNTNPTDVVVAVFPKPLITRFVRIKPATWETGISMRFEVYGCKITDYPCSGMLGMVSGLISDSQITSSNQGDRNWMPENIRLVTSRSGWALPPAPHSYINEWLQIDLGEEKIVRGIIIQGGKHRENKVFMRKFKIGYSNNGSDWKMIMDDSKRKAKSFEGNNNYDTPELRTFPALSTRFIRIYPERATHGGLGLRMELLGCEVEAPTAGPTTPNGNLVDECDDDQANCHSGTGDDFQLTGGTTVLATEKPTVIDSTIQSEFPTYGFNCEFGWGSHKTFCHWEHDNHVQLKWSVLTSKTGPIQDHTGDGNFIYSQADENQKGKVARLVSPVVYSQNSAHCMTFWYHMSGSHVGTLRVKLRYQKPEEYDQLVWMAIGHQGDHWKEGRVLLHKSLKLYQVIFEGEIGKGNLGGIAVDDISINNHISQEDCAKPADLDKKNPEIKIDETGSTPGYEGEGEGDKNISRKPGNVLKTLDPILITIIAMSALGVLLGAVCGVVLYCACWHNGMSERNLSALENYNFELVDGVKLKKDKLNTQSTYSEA

As to `CN(C)c1ccc(Nc2c(-c3ccccc3)c(C#N)c3cccc(Cl)n23)cc1`, the half-inhibitory concentration (IC50) against Neuropilin-1 amounted to 47 µM.

On to `N#Cc1c(-c2ccccc2)c(NC2CCCCC2)n2c(Cl)cccc12`, for which the values for the half-inhibitory concentration (IC50) against Neuropilin-1 and in the data set on PC-3 [1] were 29 µM and 72 µM, respectively. For the same molecule, the Activity result in the data set with PC-3 [2] is listed as “Non-toxic”. Turning to `Cc1ccc(-c2c(C#N)c3cccc(Cl)n3c2NCCc2ccccc2)cc1`, the midpoint of inhibition against Neuropilin-1, the IC50, lay at 5 µM. `N#Cc1c(-c2ccc(Cl)cc2)c(NCCc2ccccc2)n2c(Cl)cccc12` gave an IC50 on Neuropilin-1 of 2 µM. Consider `COc1ccc(CNc2c(-c3ccccc3)c(C#N)c3cccc(Cl)n23)c(OC)c1`, for which the result at Neuropilin-1 was inactive. As to `N#Cc1c(-c2ccccc2)c(NCCN)n2c(Cl)cccc12`, on Neuropilin-1, the midpoint of inhibition, the IC50, lay at 43 µM. The molecule `N#Cc1c(-c2ccccc2)c(NCCc2ccc(Cl)cc2)n2c(Cl)cccc12` showed an IC50 against Neuropilin-1 of 4 µM.

Turning to `N#Cc1c(-c2ccccc2)c(NC2CCCCC2)n2c(SCC(=O)O)cccc12`, the result on Neuropilin-1 was inactive. As for `CN(C)CCCNc1c(-c2ccccc2)c(C#N)c2cccc(Cl)n12`, at Neuropilin-1, it took 62 µM to reach half-maximal inhibition (IC50). On the same count and under the same terms, with `COc1ccc(-c2c(C#N)c3cccc(Cl)n3c2NCCc2ccccc2)cc1` the figure was 5 µM. As for `COCCNc1c(-c2ccccc2)c(C#N)c2cccc(Cl)n12`, at Neuropilin-1, 9 µM corresponded to half-maximal inhibition (IC50).

In turn, `N#Cc1c(C2CCNCC2)c(NCCc2ccccc2)n2c(Cl)cccc12` gave an IC50 on Neuropilin-1 of 95 µM. On Neuropilin-1, `CSc1ccc(-c2c(C#N)c3cccc(Cl)n3c2NCCc2ccccc2)cc1` came in with an IC50 of 3 µM. With `CC(C)(C)c1ccc(-c2c(C#N)c3cccc(Cl)n3c2NCCc2ccccc2)cc1`, inhibition on Neuropilin-1 was half-maximal at 14 µM (IC50). `N#Cc1c(CCO)c(NCCc2ccccc2)n2c(Cl)cccc12` registered a concentration for half-maximal inhibition (IC50) at Neuropilin-1 of 13 µM. With `N#Cc1c(C2CCCCC2)c(NCCc2ccccc2)n2c(Cl)cccc12`, the result on Neuropilin-1 was inactive. As to `N#Cc1c(-c2ccccc2)c(NCCc2ccccc2)n2c(Cl)cccc12`, the results for the IC50 against Neuropilin-1 and in the data set with PC-3 [1] were 2 µM and 21 µM, respectively. The Activity entry in the data set with PC-3 [2] is reported as “Non-toxic”. As for `CSc1cccc2c(C#N)c(-c3ccccc3)c(NC3CCCCC3)n12`, the outcome on Neuropilin-1 was inactive. At Neuropilin-1, `CN(C)CCNc1cccc2c(C#N)c(-c3ccccc3)c(NC3CCCCC3)n12` registered a half-inhibitory concentration (IC50) of 42 µM. For the molecule `N#Cc1c(-c2ccccc2)c(N)n2c(Cl)cccc12`, the result on Neuropilin-1 was inactive.

As for `N#Cc1c(-c2ccccc2)c(NCC(=O)NCc2ccco2)n2c(Cl)cccc12`, the IC50 on Neuropilin-1 worked out at 19 µM; in the data set on PC-3 [1], 54 µM. In addition, the Activity entry with PC-3 [2] is “Non-toxic”.

In the case of `COC(=O)CSc1cccc2c(C#N)c(-c3ccccc3)c(NC3CCCCC3)n12`, the result on Neuropilin-1 was inactive. Take `Cc1ccc(C)c(-c2c(C#N)c3cccc(Cl)n3c2NCCc2ccccc2)c1`: the half-inhibitory concentration (IC50) at Neuropilin-1 amounted to 6 µM. For the molecule `COc1cccc(-c2c(C#N)c3cccc(Cl)n3c2NCCc2ccccc2)c1`, on Neuropilin-1, the half-inhibitory concentration (IC50) came out at 2 µM. For `N#Cc1c(-c2ccccc2S)c(NCCc2ccccc2)n2c(Cl)cccc12`, the IC50 at Neuropilin-1 worked out at 10 µM. Regarding `CCN(CC)CCNc1c(-c2ccccc2)c(C#N)c2cccc(Cl)n12`, the result on Neuropilin-1 was inactive. As to `CN(CCNc1c(-c2ccccc2)c(C#N)c2cccc(Cl)n12)Cc1ccccc1`, the half-inhibitory concentration (IC50) at Neuropilin-1 is 4 µM. The same measure, in the same setting: the value for `N#Cc1c(-c2cccc(S)c2)c(NCCc2ccccc2)n2c(Cl)cccc12` was 6 µM.

For the molecule `N#Cc1c(-c2ccnc3ccccc23)c(NCCc2ccccc2)n2c(Cl)cccc12`, the outcome on Neuropilin-1 was inactive.

`N#Cc1c(CCc2ccccc2)c(NCCc2ccccc2)n2c(Cl)cccc12` gave a concentration for half-maximal inhibition (IC50) against Neuropilin-1 of 2 µM. In turn, `N#Cc1c(-c2ccccc2Cl)c(NCCc2ccccc2)n2c(Cl)cccc12` registered an IC50 against Neuropilin-1 of 3 µM. For `CC(=O)Nc1c(-c2ccccc2)c(C#N)c2cccc(Cl)n12`, the result at Neuropilin-1 was inactive. `N#Cc1c(-c2ccccc2F)c(NCCc2ccccc2)n2c(Cl)cccc12` came in with an IC50 against Neuropilin-1 of 3 µM. On to `CN(C)CCCOc1cccc2c(C#N)c(-c3ccccc3)c(NC3CCCCC3)n12`, for which inhibition against Neuropilin-1 was half-maximal at 79 µM (IC50). At Neuropilin-1, `Cc1cnc(-c2c(C#N)c3cccc(Cl)n3c2NCCc2ccccc2)s1` registered an IC50 of 22 µM. Consider `N#Cc1c(-c2cccc(F)c2)c(NCCc2ccccc2)n2c(Cl)cccc12`, for which the concentration for half-maximal inhibition (IC50) stood at 2 µM against Neuropilin-1 and 8 µM in the data set with PC-3 [1]. In addition, the Activity entry in the data set on PC-3 [2] is “Non-toxic”.

The molecule `N#Cc1c(-c2ccc(OC(F)(F)F)cc2)c(NCCc2ccccc2)n2c(Cl)cccc12` gave a half-inhibitory concentration (IC50) on Neuropilin-1 of 13 µM. As to `CN(C)CCCOc1ccc(-c2c(C#N)c3cccc(Cl)n3c2NCCc2ccccc2)cc1`, it took 10 µM to reach half-maximal inhibition against Neuropilin-1 (IC50). `N#Cc1c(-c2ccncc2)c(NCCc2ccccc2)n2c(Cl)cccc12`: the concentration for half-maximal inhibition (IC50) against Neuropilin-1 worked out at 6 µM. Turning to `N#Cc1c(-c2ccccc2)c(NCCc2ccccc2Cl)n2c(Cl)cccc12`, the IC50 at Neuropilin-1 is 3 µM; with PC-3 [1] it was 23 µM. For the same molecule, in the data set on PC-3 [2], the Activity entry is reported as “Non-toxic”.

For `N#Cc1c(-c2cccnc2)c(NCCc2ccccc2)n2c(Cl)cccc12`, the concentration for half-maximal inhibition (IC50) against Neuropilin-1 turned out to be 4 µM. In turn, `N#Cc1c(-c2cccc(Cl)c2)c(NCCc2ccccc2)n2c(Cl)cccc12` registered an IC50 on Neuropilin-1 of 3 µM. Take `N#Cc1c(-c2ccccn2)c(NCCc2ccccc2)n2c(Cl)cccc12`: the IC50 on Neuropilin-1 came to 2 µM.

For `N#Cc1c(-c2ccccc2)c(NCc2ccc(Cl)c(Cl)c2)n2c(Cl)cccc12`, at Neuropilin-1, the 50% inhibitory concentration (IC50) worked out at 13 µM.

The molecule `N#Cc1c(-c2ccc(F)c3ccccc23)c(NCCc2ccccc2)n2c(Cl)cccc12` showed a half-inhibitory concentration (IC50) against Neuropilin-1 of 4 µM. `COc1ccccc1-c1c(C#N)c2cccc(Cl)n2c1NCCc1ccccc1` returned an IC50 against Neuropilin-1 of 3 µM. Turning to `N#Cc1c(-c2ccccc2)c(NC(=O)c2ccccc2)n2c(Cl)cccc12`, at Neuropilin-1, the result was inactive.

On to `N#Cc1c(-c2ccccc2)c(Nc2cccc(N)c2)n2c(Cl)cccc12`, for which the concentration for half-maximal inhibition (IC50) against Neuropilin-1 was 80 µM. For `Cc1ccccc1-c1c(C#N)c2cccc(Cl)n2c1NCCc1ccccc1`, the half-maximal inhibitory concentration (IC50) against Neuropilin-1 came to 9 µM.

As for `N#Cc1c(-c2ccccc2)c(NC2CCCCC2)n2c(F)cccc12`, on Neuropilin-1, the result was inactive.

Molecule `N#Cc1c(-c2ccc(F)cc2)c(NCCc2ccccc2)n2c(Cl)cccc12` gave an IC50 against Neuropilin-1 of 5 µM.

`Cc1cccc(C)c1Nc1c(-c2ccccc2)c(C#N)c2cccc(Cl)n12`: on Neuropilin-1, the IC50 is 60 µM.

As a reminder, the IC50 is the midpoint of a concentration-inhibition curve.
